Results published in patent US20170050894A1, “FERTILIZER MIXTURE CONTAINING NITRIFICATION INHIBITOR” (EUROCHEM AGRO GMBH, priority 2013, published 2017).

Test: Storage stability in an accelerated test (open glass beaker, 40 days at 30° C.)
Type: physicochemical
Conditions: for Analytical value (concentration of nitrification inhibitor on the mineral fertilizer): Value at start
Procedure: The concentration of nitrification inhibitor on the mineral fertilizer was determined before, during and after storage at two different depths in the bed, and the loss of nitrification inhibitor was ascertained. In each case about 10 to 30 g of treated mineral fertilizer were stored. The concentration of DMPP at the start was 1.028 g/kg fertilizer; for 2-(N-3,4-dimethylpyrazole)succinic acid, the figure was 1.244 g/kg fertilizer.
After 20 and 40 days, samples were taken from a surface region of the fertilizer bed (0 to 5 cm sampling depth and >5 cm sampling depth).
The results are shown in table 1 below, where DMPSA denotes 2-(N-3,4-dimethylpyrazole)succinic acid.

Row | SMILES | Analytical value (concentration of nitrification inhibitor on the mineral fertilizer) | loss of nitrification inhibitor on storage, compared with DMPP (storage over 20 to 40 days on CAN)
1 | Cc1cn(C(CC(=O)O)C(=O)O)nc1C (stereo not drawn) [DMPSA, 2-(N-3,4-dimethylpyrazole)succinic acid] | 1.244 g/kg | much lower
2 | Cc1c[nH]nc1C.O=P(O)(O)O [DMPP, 3,4-dimethylpyrazole phosphate, reference compound] | 1.028 g/kg | 
